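Tested at 5 concentrations; 48 h exposure; 96-well plates; endpoints linearly interpolated, else capped at highest concentration. At the TGI there is no net growth.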
Columns and labels:
Test in all cases: NCI anticancer screen, dose series, 48 h
HS 578T breast = test system: HS 578T breast
HCT-116 colon = test system: HCT-116 colon
M14 melanoma = test system: M14 melanoma
EKVX NSCLC = test system: EKVX NSCLC
BT-549 breast = test system: BT-549 breast
HCT-15 colon = test system: HCT-15 colon
MOLT-4 leukemia = test system: MOLT-4 leukemia
NCI-H460 lung = test system: NCI-H460 lung
HOP-62 NSCLC = test system: HOP-62 NSCLC
SK-OV-3 ovarian = test system: SK-OV-3 ovarian
SW-620 colon = test system: SW-620 colon
MDA-MB-231 breast = test system: MDA-MB-231 breast
U251 CNS = test system: U251 CNS
COLO 205 colon = test system: COLO 205 colon
SK-MEL-5 melanoma = test system: SK-MEL-5 melanoma
UO-31 renal = test system: UO-31 renal
NCI/ADR-RES ovarian = test system: NCI/ADR-RES ovarian
SF-268 CNS = test system: SF-268 CNS
CCRF-CEM leukemia = test system: CCRF-CEM leukemia
NCI-H226 lung = test system: NCI-H226 lung
SR leukemia = test system: SR leukemia
HCC-2998 colon = test system: HCC-2998 colon
OVCAR-8 ovarian = test system: OVCAR-8 ovarian
UACC-62 melanoma = test system: UACC-62 melanoma
TK-10 renal = test system: TK-10 renal
NCI-H522 lung = test system: NCI-H522 lung
ACHN renal = test system: ACHN renal
RXF 393 renal = test system: RXF 393 renal
SK-MEL-28 melanoma = test system: SK-MEL-28 melanoma
OVCAR-5 ovarian = test system: OVCAR-5 ovarian
786-0 renal = test system: 786-0 renal
SNB-19 CNS = test system: SNB-19 CNS
UACC-257 melanoma = test system: UACC-257 melanoma
MDA-N = test system: MDA-N
SF-539 CNS = test system: SF-539 CNS
RPMI-8226 leukemia = test system: RPMI-8226 leukemia
PC-3 prostate = test system: PC-3 prostate
OVCAR-4 ovarian = test system: OVCAR-4 ovarian
MALME-3M melanoma = test system: MALME-3M melanoma
DU-145 prostate = test system: DU-145 prostate
T-47D breast = test system: T-47D breast
CAKI-1 renal = test system: CAKI-1 renal
HL-60(TB) leukemia = test system: HL-60(TB) leukemia
SK-MEL-2 melanoma = test system: SK-MEL-2 melanoma
KM12 colon = test system: KM12 colon
HOP-92 NSCLC = test system: HOP-92 NSCLC
K-562 leukemia = test system: K-562 leukemia
SNB-75 CNS = test system: SNB-75 CNS
SF-295 CNS = test system: SF-295 CNS
MCF7 breast = test system: MCF7 breast
LOX IMVI melanoma = test system: LOX IMVI melanoma
SN12C renal = test system: SN12C renal
IGROV1 ovarian = test system: IGROV1 ovarian
HT29 colon = test system: HT29 colon
A549 NSCLC = test system: A549 NSCLC
MDA-MB-435 = test system: MDA-MB-435
NCI-H23 lung = test system: NCI-H23 lung
OVCAR-3 ovarian = test system: OVCAR-3 ovarian

O=c1oc2ccc([N+](=O)[O-])cc2cc1-c1csc(-c2ccccc2)n1 gave a TGI (HS 578T breast) of over 100 µM, a TGI (HCT-116 colon) of over 100 µM and a TGI (M14 melanoma) of over 100 µM. It also gave a TGI (EKVX NSCLC) of over 100 µM, a TGI (BT-549 breast) of over 100 µM and a TGI (HCT-15 colon) of over 100 µM. It also gave a TGI (MOLT-4 leukemia) of over 100 µM, a TGI (NCI-H460 lung) of over 100 µM and a TGI (HOP-62 NSCLC) of over 100 µM. For the same molecule, the TGI (SK-OV-3 ovarian) was over 100 µM, the TGI (SW-620 colon) was over 100 µM and the TGI (MDA-MB-231 breast) was over 100 µM. For the same molecule, the TGI (U251 CNS) was over 100 µM, the TGI (COLO 205 colon) was over 100 µM and the TGI (SK-MEL-5 melanoma) was over 100 µM. It also gave a TGI (UO-31 renal) of over 100 µM, a TGI (NCI/ADR-RES ovarian) of over 100 µM and a TGI (SF-268 CNS) of over 100 µM. The TGI (CCRF-CEM leukemia) was over 100 µM, the TGI (NCI-H226 lung) was over 100 µM and the TGI (SR leukemia) was over 100 µM. For the same molecule, the TGI (HCC-2998 colon) was over 100 µM, the TGI (OVCAR-8 ovarian) was over 100 µM and the TGI (UACC-62 melanoma) was over 100 µM. For the same molecule, the TGI (TK-10 renal) was over 100 µM, the TGI (NCI-H522 lung) was over 100 µM and the TGI (ACHN renal) was over 100 µM. For the same molecule, the TGI (RXF 393 renal) was over 100 µM, the TGI (SK-MEL-28 melanoma) was over 100 µM and the TGI (OVCAR-5 ovarian) was over 100 µM. For the same molecule, the TGI (786-0 renal) was over 100 µM, the TGI (SNB-19 CNS) was over 100 µM and the TGI (UACC-257 melanoma) was over 100 µM. The TGI (MDA-N) was over 100 µM, the TGI (SF-539 CNS) was over 100 µM and the TGI (RPMI-8226 leukemia) was over 100 µM. For the same molecule, the TGI (PC-3 prostate) was over 100 µM, the TGI (OVCAR-4 ovarian) was over 100 µM and the TGI (MALME-3M melanoma) was over 100 µM. For the same molecule, the TGI (DU-145 prostate) was over 100 µM, the TGI (T-47D breast) was over 100 µM and the TGI (CAKI-1 renal) was over 100 µM. For the same molecule, the TGI (HL-60(TB) leukemia) was over 100 µM, the TGI (SK-MEL-2 melanoma) was over 100 µM and the TGI (KM12 colon) was over 100 µM. It also gave a TGI (HOP-92 NSCLC) of over 100 µM, a TGI (K-562 leukemia) of over 100 µM and a TGI (SNB-75 CNS) of over 100 µM. For the same molecule, the TGI (SF-295 CNS) was over 100 µM, the TGI (MCF7 breast) was over 100 µM and the TGI (LOX IMVI melanoma) was over 100 µM. It also gave a TGI (SN12C renal) of over 100 µM, a TGI (IGROV1 ovarian) of over 100 µM and a TGI (HT29 colon) of over 100 µM. For the same molecule, the TGI (A549 NSCLC) was over 100 µM and the TGI (MDA-MB-435) was over 100 µM.
FC1(F)SC2CCCCCCCCCCC2C1(F)F (stereo not drawn) showed a TGI (HS 578T breast) of over 100 µM, a TGI (HCT-116 colon) of 37.1 µM and a TGI (M14 melanoma) of over 100 µM. The TGI (EKVX NSCLC) was over 100 µM, the TGI (BT-549 breast) was over 100 µM and the TGI (HCT-15 colon) was over 100 µM. The TGI (MOLT-4 leukemia) was over 100 µM, the TGI (HOP-62 NSCLC) was over 100 µM and the TGI (SK-OV-3 ovarian) was over 100 µM. For the same molecule, the TGI (MDA-MB-231 breast) was over 100 µM, the TGI (U251 CNS) was 63.6 µM and the TGI (COLO 205 colon) was 34.7 µM. The TGI (SK-MEL-5 melanoma) was over 100 µM, the TGI (UO-31 renal) was over 100 µM and the TGI (NCI/ADR-RES ovarian) was over 100 µM. It also gave a TGI (SF-268 CNS) of over 100 µM, a TGI (CCRF-CEM leukemia) of over 100 µM and a TGI (NCI-H226 lung) of over 100 µM. It also gave a TGI (SR leukemia) of over 100 µM, a TGI (NCI-H23 lung) of 80.1 µM and a TGI (OVCAR-8 ovarian) of over 100 µM. The TGI (UACC-62 melanoma) was over 100 µM, the TGI (TK-10 renal) was over 100 µM and the TGI (NCI-H522 lung) was 52.7 µM. It also gave a TGI (ACHN renal) of 73.8 µM, a TGI (RXF 393 renal) of 54 µM and a TGI (SK-MEL-28 melanoma) of 71 µM. It also gave a TGI (OVCAR-5 ovarian) of over 100 µM, a TGI (786-0 renal) of over 100 µM and a TGI (SNB-19 CNS) of over 100 µM. It also gave a TGI (UACC-257 melanoma) of 69.8 µM, a TGI (MDA-N) of over 100 µM and a TGI (RPMI-8226 leukemia) of over 100 µM. It also gave a TGI (PC-3 prostate) of over 100 µM, a TGI (OVCAR-4 ovarian) of over 100 µM and a TGI (MALME-3M melanoma) of 59.6 µM. The TGI (DU-145 prostate) was over 100 µM, the TGI (T-47D breast) was over 100 µM and the TGI (CAKI-1 renal) was over 100 µM. The TGI (HL-60(TB) leukemia) was 30.3 µM, the TGI (SK-MEL-2 melanoma) was 39.3 µM and the TGI (HOP-92 NSCLC) was 51.6 µM. The TGI (K-562 leukemia) was 35.3 µM, the TGI (SNB-75 CNS) was over 100 µM and the TGI (SF-295 CNS) was over 100 µM. For the same molecule, the TGI (MCF7 breast) was 44.2 µM, the TGI (LOX IMVI melanoma) was 31.6 µM and the TGI (OVCAR-3 ovarian) was 39.1 µM. The TGI (IGROV1 ovarian) was over 100 µM, the TGI (HT29 colon) was 96.5 µM and the TGI (A549 NSCLC) was over 100 µM. The TGI (MDA-MB-435) was over 100 µM.
